From patent publication US7763728B2, “Tetrahydropyridothiophenes” (4SC AG, priority 2005, dated 2010) come the findings set out here.

Experiment [1] deals with RKO colon adenocarcinoma cells (RKOp27) arrested by the expression of ectopic p27Kip1. Description: Alamar Blue cell viability assay on RKOp27 cells arrested by p27Kip1 expression induced by Ponasterone A. Format: cell-based. The conditions noted are these: Homo sapiens, 72 hours incubation, 10 μM Ponasterone A, read-out: IC50 RKO p27 induced (arrested). On the procedure: To determine the cell cycle specific mode of action, subclones of RKO colon adenocarcinoma cells (RKOp27 or RKOp21 as described by Schmidt et al. in Oncogene 19, 2423-2429; 2000) are seeded into 96 well flat bottom plates at a density of 15000 cells per well in a volume of 50 μl per well in DMEM growth medium with 10% FCS containing 10 μM Ponasterone A. 24 hours after seeding the 50 μl each of the compound dilutions in DMEM medium are added into each well of the 96 Well plate. Each compound dilution is tested as quadruplicates. Wells containing untreated control cells are filled with 50 μl DMEM medium containing 1% DMSO. The cells are then incubated with the substances for 72 hours at 37° C. in a humidified atmosphere containing 5% carbon dioxide. To determine the viability of the cells, 10 μl of an Alamar Blue solution (Biosource) are added and the fluorescence was measured at an extinction of 544 nm and an emission of 590 nm. For the calculation of the cell viability the emission value from untreated cells is set as 100% viability and the emission rates of treated cells are set in relation to the values of untreated cells. Viabilities are expressed as % values. Viability is compared of proliferating cells grown in the absence of the inducer Ponasterone A, versus viability of cells arrested by the expression of ectopic p27Kip1 induced by Ponasterone A.

Experiment [2] relates to RKO (RKOp27) human colon adenocarcinoma cells. Kind of experiment: Alamar Blue cell viability assay, anti-proliferative/cytotoxic activity on proliferating (uninduced) RKOp27 cells. Format: cell-based. Particulars: 72 hours incubation, absence of the inducer Ponasterone A, read-out: IC50 RKO p27 uninduced (proliferating). On the procedure:
The anti-proliferative/cytotoxic activity of the compounds described herein, can be tested on subclones of RKO (RKOp27) human colon adenocarcinoma cells (Schmidt et al., Oncogene 19, 2423-2429; 2000) using the Alamar Blue cell viability assay (described in O'Brien et al. Eur J Biochem 267, 5421-5426, 2000). The compounds are dissolved as 20 mM solutions in dimethylsulfoxide (DMSO) and subsequently diluted in semi-logarithmic steps. DMSO dilutions are further diluted 1:100 into Dulbecco's modified Eagle's medium (DMEM) containing 10% fetal calf serum to a final concentration twice as much as the final concentration in the test. RKO subclones are seeded into 96 well flat bottom plates at a density of 5000 cells per well in a volume of 50 μl per well. 24 hours after seeding the 50 μl each of the compound dilutions in DMEM medium are added into each well of the 96 Well plate. Each compound dilution is tested as quadruplicates. Wells containing untreated control cells are filled with 50 μl DMEM medium containing 1% DMSO. The cells are then incubated with the substances for 72 hours at 37° C. in a humified atmosphere containing 5% carbon dioxide. To determine the viability of the cells, 10 μl of an Alamar Blue solution (Biosource) are added and the fluorescence is measured at an extinction of 544 nm and an emission of 590 nm. For the calculation of the cell viability the emission value from untreated cells is set as 100% viability and the emission rates of treated cells are set in relation to the values of untreated cells. Viabilities are expressed as % values.
The corresponding IC50 values of the compounds for anti-proliferative/cytotoxic activity are determined from the concentration-effect curves.
Representative IC50 values for anti-proliferation/cytotoxicity determined in the mentioned assay follow from the following table A, in which the numbers of the compounds correspond to the numbers of the examples.

A value given as a limit tells only on which side of the number the result lay.

Turning to `CCCC(=O)N1CCc2c(sc(NC(=O)CCc3ccccc3OCC)c2C#N)C1` [Example 24, N-(6-Butyryl-3-cyano-4,5,6,7-tetrahydro-thieno[2,3-c]pyridin-2-yl)-3-(2-ethoxy-phenyl)-propionamide], the values for the half-maximal inhibitory concentration (IC50) in experiment [1] and in experiment [2] were over 100000 nM and at most 300 nM, respectively.

`COc1cccc(C(C)CC(=O)Nc2sc3c(c2C#N)CCN(C(=O)CCc2ccncc2)C3)c1` (racemic) [Example 79, (RS)—N-[3-Cyano-6-(3-pyridin-4-yl-propanoyl)-4,5,6,7-tetrahydro-thieno[2,3-c]pyridin-2-yl]-3-(3-methoxy-phenyl)-butyramide]: the values for the IC50 in experiment [1] and in experiment [2] were over 100000 nM and 300 to 2000 nM, respectively.

Turning to `COc1cccc(C(C)CC(=O)Nc2sc3c(c2C#N)CCN(C(=O)Cc2cccnc2)C3)c1` (racemic) [Example 64, (RS)—N-[3-Cyano-6-(2-pyridin-3-yl-ethanoyl)-4,5,6,7-tetrahydro-thieno[2,3-c]pyridin-2-yl]-3-(3-methoxy-phenyl)-butyramide], the IC50 was at least 40000 nM in experiment [1] and 300 to 2000 nM in experiment [2].

In the case of `CCOc1ccccc1C(C)CC(=O)Nc1sc2c(c1C#N)CCN(C(=O)CCn1cnc(C)c1)C2` (racemic) [Example 153, (RS)—N-{3-Cyano-6-[3-(4-methyl-imidazol-1-yl)-propanoyl]-4,5,6,7-tetrahydro-thieno[2,3-c]pyridin-2-yl}-3-(2-ethoxy-phenyl)-butyramide], the values for the IC50 in experiment [1] and in experiment [2] were at least 10000 nM and 300 to 2000 nM, respectively.

As to `COc1ccccc1CCC(=O)Nc1sc2c(c1C#N)CCN(C(=O)CCc1ccccn1)C2` [Example 95, N-[3-Cyano-6-(3-pyridin-2-yl-propanoyl)-4,5,6,7-tetrahydro-thieno[2,3-c]pyridin-2-yl]-3-(2-methoxy-phenyl)-propionamide], the concentration for half-maximal inhibition (IC50) is over 100000 nM in experiment [1] and at most 300 nM in experiment [2].

`COc1ccc(C)cc1CCC(=O)Nc1sc2c(c1C#N)CCN(C(=O)CCc1cnccc1OC)C2` [Example 41, N-{3-Cyano-6-[3-(4-methoxy-pyridin-3-yl)-propanoyl]-4,5,6,7-tetrahydro-thieno[2,3-c]pyridin-2-yl}-3-(2-methoxy-5-methyl-phenyl)-propionamide]: the IC50 in experiment [1] is at least 40000 nM; in experiment [2], 300 to 2000 nM.

Turning to `COc1ccccc1CCC(=O)Nc1sc2c(c1C#N)CCN(C(=O)CCn1cnc(C)c1)C2` [Example 155, N-{3-Cyano-6-[3-(4-methyl-imidazol-1-yl)-propanoyl]-4,5,6,7-tetrahydro-thieno[2,3-c]pyridin-2-yl}-3-(2-methoxy-phenyl)-propionamide], the results for the concentration for half-maximal inhibition (IC50) in experiment [1] and in experiment [2] were at least 10000 nM and 300 to 2000 nM, respectively.

Consider `COc1cccc(CCC(=O)Nc2sc3c(c2C#N)CCN(C(=O)Cc2ccccn2)C3)c1` [Example 31, N-[3-Cyano-6-(2-pyridin-2-yl-ethanoyl)-4,5,6,7-tetrahydro-thieno[2,3-c]pyridin-2-yl]-3-(3-methoxy-phenyl)-propionamide], for which the IC50 in experiment [1] is over 100000 nM; in experiment [2], at most 300 nM.

In the case of `COc1cccc(CCC(=O)Nc2sc3c(c2C#N)CCN(C(=O)Cn2cnc(C)c2)C3)c1` [Example 138, N-{3-Cyano-6-[2-(4-methyl-imidazol-1-yl)-ethanoyl]-4,5,6,7-tetrahydro-thieno[2,3-c]pyridin-2-yl}-3-(3-methoxy-phenyl)-propionamide], the IC50 in experiment [1] was at least 40000 nM; in experiment [2] it was 300 to 2000 nM.

In the case of `CCOc1ccccc1C(C)CC(=O)Nc1sc2c(c1C#N)CCN(C(=O)CCc1ccncc1)C2` (racemic) [Example 121, (RS)—N-[3-Cyano-6-(3-pyridin-4-yl-propanoyl)-4,5,6,7-tetrahydro-thieno[2,3-c]pyridin-2-yl]-3-(2-ethoxy-phenyl)-butyramide], the results for the IC50 in experiment [1] and in experiment [2] were at least 10000 nM and 300 to 2000 nM, respectively.

Regarding `CCOc1ccccc1CCC(=O)Nc1sc2c(c1C#N)CCN(C(=O)CCc1ccccn1)C2` [Example 17, N-[3-Cyano-6-(3-pyridin-2-yl-propanoyl)-4,5,6,7-tetrahydro-thieno[2,3-c]pyridin-2-yl]-3-(2-ethoxy-phenyl)-propionamide], the half-maximal inhibitory concentration (IC50) was at least 40000 nM in experiment [1] and at most 300 nM in experiment [2].

Consider `COc1ccc(C)cc1CCC(=O)Nc1sc2c(c1C#N)CCN(C(=O)Cn1ccnc1)C2` [Example 86, N-[3-Cyano-6-(2-imidazol-1-yl-ethanoyl)-4,5,6,7-tetrahydro-thieno[2,3-c]pyridin-2-yl]-3-(2-methoxy-5-methyl-phenyl)-propionamide], for which the IC50 is at least 40000 nM in experiment [1] and 300 to 2000 nM in experiment [2].

For `CCOc1ccccc1C(C)CC(=O)Nc1sc2c(c1C#N)CCN(C(=O)Cc1ccncc1)C2` (racemic) [Example 71, (RS)—N-[3-Cyano-6-(2-pyridin-4-yl-ethanoyl)-4,5,6,7-tetrahydro-thieno[2,3-c]pyridin-2-yl]-3-(2-ethoxy-phenyl)-butyramide], the results for the concentration for half-maximal inhibition (IC50) in experiment [1] and in experiment [2] were over 100000 nM and at most 300 nM, respectively.

As for `COc1ccccc1C(C)CC(=O)Nc1sc2c(c1C#N)CCN(C(=O)Cn1cc(C)nc1C)C2` (racemic) [Example 144, (RS)—N-{3-Cyano-6-[2-(2,4-dimethyl-imidazol-1-yl)-ethanoyl]-4,5,6,7-tetrahydro-thieno[2,3-c]pyridin-2-yl}-3-(2-methoxy-phenyl)-butyramide], the IC50 in experiment [1] is at least 10000 nM; in experiment [2], 300 to 2000 nM.

Take `COc1cccc(CCC(=O)Nc2sc3c(c2C#N)CCN(C(=O)CCc2ccncc2)C3)c1` [Example 15, N-[3-Cyano-6-(3-pyridin-4-yl-propanoyl)-4,5,6,7-tetrahydro-thieno[2,3-c]pyridin-2-yl]-3-(3-methoxy-phenyl)-propionamide]: the 50% inhibitory concentration (IC50) was over 100000 nM in experiment [1] and 300 to 2000 nM in experiment [2].

For the compound `COc1ccccc1CCC(=O)Nc1sc2c(c1C#N)CCN(C(=O)Cn1cnc(C)c1)C2` [Example 139, N-{3-Cyano-6-[2-(4-methyl-imidazol-1-yl)-ethanoyl]-4,5,6,7-tetrahydro-thieno[2,3-c]pyridin-2-yl}-3-(2-methoxy-phenyl)-propionamide], the IC50 was at least 40000 nM in experiment [1] and at most 300 nM in experiment [2].

`COc1cccc(CCC(=O)Nc2sc3c(c2C#N)CCN(C(=O)CO)C3)c1` [Example 28, N-[3-Cyano-6-(2-hydroxy-ethanoyl)-4,5,6,7-tetrahydro-thieno[2,3-c]pyridin-2-yl]-3-(3-methoxy-phenyl)-propionamide]: the IC50 is over 100000 nM in experiment [1] and 300 to 2000 nM in experiment [2].

Take `COc1ccc(C)cc1CCC(=O)Nc1sc2c(c1C#N)CCN(C(=O)Cc1ccccn1)C2` [Example 60, N-[3-Cyano-6-(2-pyridin-2-yl-ethanoyl)-4,5,6,7-tetrahydro-thieno[2,3-c]pyridin-2-yl]-3-(2-methoxy-5-methyl-phenyl)-propionamide]: the 50% inhibitory concentration (IC50) in experiment [1] was over 100000 nM; in experiment [2], at most 300 nM.

`CCCC(=O)N1CCc2c(sc(NC(=O)CC(C)c3cccc(OC)c3)c2C#N)C1` (racemic) [Example 87, (RS)—N-(6-Butyryl-3-cyano-4,5,6,7-tetrahydro-thieno[2,3-c]pyridin-2-yl)-3-(3-methoxy-phenyl)-butyramide]: the half-maximal inhibitory concentration (IC50) in experiment [1] was over 100000 nM; in experiment [2], 300 to 2000 nM.

Turning to `COc1cccc(CCC(=O)Nc2sc3c(c2C#N)CCN(C(=O)CC(C)n2ccnc2)C3)c1` (racemic) [Example 57, N-[3-Cyano-6-((RS)-3-imidazol-1-yl-butanoyl)-4,5,6,7-tetrahydro-thieno[2,3-c]pyridin-2-yl]-3-(3-methoxy-phenyl)-propionamide], the IC50 in experiment [1] is at least 40000 nM; in experiment [2], 300 to 2000 nM.
